Laboratory results reported in ChEMBL document CHEMBL3217497, “Design, synthesis and antiproliferative activity of indole analogues of indanocine” (2013).

What was measured:
Type in all cases: functional
[1] = Cytotoxicity against human UACC62 cells assessed as growth inhibition; conditions: UACC-62
[2] = Cytotoxicity against human OVCAR4 cells assessed as growth inhibition; conditions: OVCAR-4
SF-295 = test: Cytotoxicity against human SF295 cells assessed as growth inhibition
SR = test: Cytotoxicity against human SR cells assessed as growth inhibition
COLO 205 = test: Cytotoxicity against human COLO205 cells assessed as growth inhibition
T47D = test: Cytotoxicity against human T47D cells assessed as growth inhibition
[3] = Cytotoxicity against human OVCAR5 cells assessed as growth inhibition; conditions: OVCAR-5
K562 = test: Cytotoxicity against human K562 cells assessed as growth inhibition
A549 = test: Cytotoxicity against human A549 cells assessed as growth inhibition
M14 = test: Cytotoxicity against human M14 cells assessed as growth inhibition
MDA-MB-435 = test: Cytotoxicity against human MDA-MB-435 cells assessed as growth inhibition
LOX IMVI = test: Cytotoxicity against human LOXIMVI cells assessed as growth inhibition
HL-60(TB) = test: Cytotoxicity against human HL-60(TB) cells assessed as growth inhibition
MDA-MB-231 = test: Cytotoxicity against human MDA-MB-231 cells assessed as growth inhibition
[4] = Cytotoxicity against human HCT15 cells assessed as growth inhibition; conditions: HCT-15
NCI-H23 = test: Cytotoxicity against human NCI-H23 cells assessed as growth inhibition
SK-MEL-5 = test: Cytotoxicity against human SK-MEL-5 cells assessed as growth inhibition
SK-MEL-28 = test: Cytotoxicity against human SK-MEL-28 cells assessed as growth inhibition
[5] = Cytotoxicity against human UO31 cells assessed as growth inhibition; conditions: UO-31
SF-539 = test: Cytotoxicity against human SF539 cells assessed as growth inhibition
TK-10 = test: Cytotoxicity against human TK10 cells assessed as growth inhibition
ACHN = test: Cytotoxicity against human ACHN cells assessed as growth inhibition
HT-29 = test: Cytotoxicity against human HT-29 cells assessed as growth inhibition
[6] = Cytotoxicity against human OVCAR3 cells assessed as growth inhibition; conditions: OVCAR-3
SF-268 = test: Cytotoxicity against human SF268 cells assessed as growth inhibition
NCI-H322M = test: Cytotoxicity against human NCI-H322M cells assessed as growth inhibition
HCC 2998 = test: Cytotoxicity against human HCC2998 cells assessed as growth inhibition
KM12 = test: Cytotoxicity against human KM12 cells assessed as growth inhibition
RXF 393 = test: Cytotoxicity against human RXF393 cells assessed as growth inhibition
786-0 = test: Cytotoxicity against human 786-0 cells assessed as growth inhibition
[7] = Cytotoxicity against human EKVX cells assessed as growth inhibition
SK-OV-3 = test: Cytotoxicity against human SKOV3 cells assessed as growth inhibition
MOLT-4 = test: Cytotoxicity against human MOLT4 cells assessed as growth inhibition
HOP-92 = test: Cytotoxicity against human HOP92 cells assessed as growth inhibition
NCI-H460 = test: Cytotoxicity against human NCI-H460 cells assessed as growth inhibition
SNB-19 = test: Cytotoxicity against human SNB19 cells assessed as growth inhibition
SK-MEL-2 = test: Cytotoxicity against human SK-MEL-2 cells assessed as growth inhibition
BT-549 = test: Cytotoxicity against human BT549 cells assessed as growth inhibition
CCRF-CEM = test: Cytotoxicity against human CCRF-CEM cells assessed as growth inhibition
CAKI-1 = test: Cytotoxicity against human CAKI-1 cells assessed as growth inhibition
[8] = Cytotoxicity against human OVCAR8 cells assessed as growth inhibition; conditions: OVCAR-8
DU-145 = test: Cytotoxicity against human DU145 cells assessed as growth inhibition
PC-3 = test: Cytotoxicity against human PC3 cells assessed as growth inhibition
NCI-H522 = test: Cytotoxicity against human NCI-H522 cells assessed as growth inhibition
SN12C = test: Cytotoxicity against human SN12C cells assessed as growth inhibition
IGROV-1 = test: Cytotoxicity against human IGROV1 cells assessed as growth inhibition
[9] = Cytotoxicity against human NCI-ADR-RES cells assessed as growth inhibition
A498 = test: Cytotoxicity against human A498 cells assessed as growth inhibition
HOP-62 = test: Cytotoxicity against human HOP62 cells assessed as growth inhibition
U-251 = test: Cytotoxicity against human U251 cells assessed as growth inhibition
MCF7 = test: Cytotoxicity against human MCF7 cells assessed as growth inhibition
NCI-H226 = test: Cytotoxicity against human NCI-H226 cells assessed as growth inhibition
SW-620 = test: Cytotoxicity against human SW620 cells assessed as growth inhibition
HCT-116 = test: Cytotoxicity against human HCT116 cells assessed as growth inhibition
[10] = Cytotoxicity against human UACC257 cells assessed as growth inhibition; conditions: UACC-257
RPMI-8226 = test: Cytotoxicity against human RPMI8226 cells assessed as growth inhibition

COc1cc2c(c(N)c1OC)C(=O)/C(=C\c1cc(C)c(O)c(C)c1)C2 [INDANOCINE]
GI50 [1]: 10 nM
GI50 [2]: 7940 nM
GI50 (SF-295): 60 nM
GI50 (SR): 10 nM
GI50 (COLO 205): 5010 nM
GI50 (T47D): 100000 nM
GI50 [3]: 630 nM
GI50 (K562): 10 nM
GI50 (A549): 10 nM
GI50 (M14): 10 nM
GI50 (MDA-MB-435): 10 nM
GI50 (LOX IMVI): 10 nM
GI50 (HL-60(TB)): 10 nM
GI50 (MDA-MB-231): 10 nM
GI50 [4]: 10 nM
GI50 (NCI-H23): 10 nM
GI50 (SK-MEL-5): 10 nM
GI50 (SK-MEL-28): 1000 nM
GI50 [5]: 80 nM
GI50 (SF-539): 10 nM
GI50 (TK-10): 79400 nM
GI50 (ACHN): 60 nM
GI50 (HT-29): 2510 nM
GI50 [6]: 10 nM
GI50 (SF-268): 10 nM
GI50 (NCI-H322M): 10 nM
GI50 (HCC 2998): 2000 nM
GI50 (KM12): 10 nM
GI50 (RXF 393): 30 nM
GI50 (786-0): 10 nM
GI50 [7]: 10 nM
GI50 (SK-OV-3): 10 nM
GI50 (MOLT-4): 10 nM
GI50 (HOP-92): 100000 nM
GI50 (NCI-H460): 10 nM
GI50 (SNB-19): 10 nM
GI50 (SK-MEL-2): 1000 nM
GI50 (BT-549): 10000 nM
GI50 (CCRF-CEM): 10 nM
GI50 (CAKI-1): 3980 nM
GI50 [8]: 10 nM
GI50 (DU-145): 10 nM
GI50 (PC-3): 10 nM
GI50 (NCI-H522): 10 nM
GI50 (SN12C): 10 nM
GI50 (IGROV-1): 40 nM
GI50 [9]: 10 nM
GI50 (A498): 7940 nM
GI50 (HOP-62): 20 nM
GI50 (U-251): 20 nM
GI50 (MCF7): 10 nM
GI50 (NCI-H226): 3980 nM
GI50 (SW-620): 10 nM
GI50 (HCT-116): 10 nM
GI50 [10]: 100000 nM
GI50 (RPMI-8226): 10 nM
